Here are results for four molecules from patent publication US6048888A, “Method and pharmaceutical formulation for treating benign prostatic hyperplasia” (priority 1993, dated 2000).

Data set [1] has as its system melatonin binding sites in the rat brain. Nature of the data set: Experiment 5: melatonin binding sites in rat brain, sham-operated and pinealectomized rats. The class given is in vivo.
Data set [2] concerns patient with benign prostate hypertrophy. Nature of the data set: Example I: BPH patient on 0.5 mg sustained release melatonin daily. The class given is in vivo, human. The protocol: Thus, the patient's PSA level was elevated, and their prostatic acid phosphatase level was slightly above normal. […] Diagnosis after needle biopsy was benign prostate hypertrophy.
The patient began taking 0.5 mg melatonin in the sustained release form daily at 21:00-22:00 hours on Feb. 1, 1992; on a continuing basis, i.e. medication was continued essentially indefinitely. […] Examination of the patient by ultrasonographic scanning on Oct. […] By Jun.

Data set [3] concerns 8-10 month old adult rats. Nature of the data set: Experiment 4: long term (~18 months) melatonin via drinking water in adult rats. The class given is in vivo, rat. How it is done:
The effects on 8-10 month old adult rats, of long term (~18 months) administration of melatonin via the drinking water (4 mg./l.), on the survival, on central melatonin binding sites, and on serum testosterone, were investigated.

For data set [4], the system named is melatonin binding sites in cytosol of stromal cells from human BPH prostate tissue. As to the kind of experiment: Specific binding of 125I-melatonin to cytosol from stromal cells of human BPH tissue. The settings on record: for Bound in Stromal (specific binding, mean): 4 patients. How it is done:
(§1) Tissue specimens were obtained from prostate glands removed by open surgery from patients suffering from urinary obstruction due to benign prostatic hyperplasia. Epithelial and stromal cells were separated from the tissue by filtration through a stainless steel mesh. The cells were then washed with saline and collected by centrifugation (1000 g, 5 min). […] The two preparations were separately homogenized at 4° C. in 0.05 M Tris-HCl, pH 7.4. Each homogenate was spun at 100,000 g for 1 hour at 4° C. and the supernatant was removed with a Pasteur pipette. Melatonin binding was measured by incubating 300 microliters of supernatant containing ca. 20 mcg. protein with carrier-free ^125 I-melatonin at concentrations of 0-1 nM, for 1 hour at 37° C. in the presence of 0.05% Triton X-100. After the incubation period, bound ^125 I-melatonin was separated from free ^125 I-melatonin by vacuum filtration using GFF glass fiber filters saturated with polyethylenimine. Protein concentrations were measured by the method of Lowry et al (J. Biol. Chem., 193: 265, 1951) using bovine serum albumin as a standard. Non-specific binding was determined by incubating the supernatant samples with the specified concentrations of ^125 I-melatonin, but in the presence of a vast excess (10 micromolar) nonradioactive melatonin. These experiments were repeated four times, using specimens from four different patients, with similar results.

In a further data set the test system is adult castrated rats. As to the kind of experiment: Experiment 1: androgen-dependent regrowth of accessory sex organs in adult castrated rats. The class given is in vivo, rat. The settings on record: testosterone propionate 1 mg/kg/day s.c. 4 days, melatonin about 40 mcg per day in drinking water. How it is done:
The effects of orally administered melatonin on androgen-dependent prostatal regrowth in adult castrated rats was investigated. Male rats (2.5 months old) were castrated under anesthesia. After 7 days, during which the average weight of the prostate decreased by ca. 60%, the rats were given daily for 4 days, a subcutaneous injection of either oil vehicle (control) or oil vehicle containing testosterone propionate (1 mg/kg body weight per day, at one hour before lights-off). […] In order to determine the weight of the relevant organs, the rats were sacrificed at the end of the 4 days following the first 7 days. […] These studies indicate a direct inhibitory effect of orally administered melatonin on prostatal growth in adult rats, contrary to the dogma that melatonin can affect the pubertal development of the rat only during the first (prepubertal) 40 days of life (Lang et al. Endocrinology,112, 1578-1584, 1983).

Another data set deals with aged male rats. Nature of the data set: Experiment 3: melatonin via drinking water for 30 days in aged male rats. The class given is in vivo, rat. The settings on record: 23-month old male rats. How it is done:
The impact of exogenously administered melatonin on central melatonin binding sites and serum testosterone in aged male rats was investigated. Thus, 23-month old male rats were treated with melatonin via the drinking water for 30 days.

Data set [5] concerns male volunteers suffering from BPH. As to the kind of experiment: Experiment 2: placebo-controlled study of oral melatonin in male volunteers suffering from BPH. The class given is in vivo, human. The settings on record: 5 mg melatonin/day oral at about 10 p.m.; preliminary results.
Another data set concerns pinealectomized rats. The settings on record: orally administered; cited from earlier work.
Data set [6] relates to melatonin binding sites in cytosol of epithelial cells from human BPH prostate tissue. As to the kind of experiment: Specific binding of 125I-melatonin to cytosol from epithelial cells of human BPH tissue. The settings on record: for Bound in Epithelial (specific binding, mean): 4 patients. How it is done: as §1, with “melatonin.” for “melatonin. These experiments were repeated four times, using specimens from four different patients, with similar results.”

Data set [7] relates to BPH patients. As to the kind of experiment: Example II: ultrastructural morphology of the human prostate after 30 days of melatonin. The class given is in vivo. The settings on record: 5 mg sustained release daily in the evening, 30 days prior to prostatectomy, five BPH patients. The source says: Specimens from the prostate glands removed from the treated patients, and from control untreated patients of the same status, were fixed in glutaraldehyde immediately after the excision, embedded in "Epon" and analyzed by electron microscopy.

For a further data set, the system named is human subjects. The settings on record: cited from earlier work.
The subject of another data set is 3α reductase. The settings on record: BPH tissue samples; cited from earlier work.
Data set [8] has as its system BPH patients. The class given is in vivo, human. How it is done:
In a clinical trial which commenced in April, 1993, 23 BPH patients were recruited and divided into two groups, one group receiving 5 mg melatonin in a sustained release formulation and the other group 50 mg melatonin in a fast release formulation, these dosages being given daily, in the evening. One patient withdrew from the study after 7 days of treatment. […] Up to August, 1993, 6 patients finished 3 months' treatment with melatonin, and the remainder had 1-2 months treatment. All patients will continue the treatment with melatonin until 6 months is completed.

In the next data set the test system is 5α reductase. The settings on record: BPH tissue samples; cited from earlier work.
For data set [9], the system named is castrated rats; hypophysectomized animals. The settings on record: cited from earlier work.
A further data set concerns male and female rats. The settings on record: oral 16-40 mcg. per day; cited from earlier work.
Setting [10] is: pinealectomized rats, daily injections.
The mark [11] stands for this setting: 4 mg./l. in drinking water, ~18 months.
The mark [12] stands for this setting: patients who had completed 3 months' treatment.

As for `O=C1Nc2ccc(Cl)cc2C(c2ccccc2)=NC1O` (stereo not shown) [oxazepam], in data set [1] (setting [10]), the “melatonin binding at other times of the day” value is on record as “did not significantly effect the binding at other times of the day” and the “melatonin binding sites at 19 hours after lights-on” value is recorded as “decreased melatonin binding sites at 19 hours after lights-on”. The “densities of melatonin binding sites in brain areas, time of peak” value in data set [1] (sham-operated rats, daily injections 14 days, untreated peak at 13 hours after lights-on) was “higher at midnight”.
For the molecule `COc1ccc2[nH]cc(CCNC(C)=O)c2c1` [melatonin], in data set [2] (0.5 mg sustained release daily at 21:00-22:00, 6 days after initiation), the “urinary flow (subjective)” value was “subjective improvement in urinary flow”. In addition, the “estimated size of the prostate gland (ultrasonographic scanning)” value in data set [2] (0.5 mg sustained release daily, Oct. 22, 1992, 55 g before and after) is listed as “no change in estimated size of the prostate gland”. In addition, the “residual bladder urine volume retained after two attempts to empty the bladder” value in data set [2] (0.5 mg sustained release daily, Oct. 22, 1992, 100 ml before treatment) is reported as “zero”. Also, in [3] (setting [11]), the “melatonin binding sites in brain of aged rats” value was “significantly increased melatonin binding sites in the medulla-pons and hypothalamus”; the “number of rats surviving at the age of 24-29 months” value was “markedly increased the number of rats surviving”; the “serum testosterone levels vs untreated controls” value is given as “significantly higher”. The “survival at age 27-29 months” value in data set [3] (4 mg./l. in drinking water, control 7 of 16) is recorded as “these continued to live at age 27-29 months”. Moreover, in [3] (4 mg./l. in drinking water, control 8 of 16, P=0.01), the “animals surviving at age 26-28 months” value is reported as 13 of 15 animals. Moreover, the pneumonia entry in [3] (aged survivors, 5 of 7 control survivors had severe pneumonia) was “either did not suffer from pneumonia, or had only very weak symptoms”. Further, the “concentration of binding sites in stromal cytosol, factor lower than epithelial” value in data set [4] (relative to 140 fmol/mg in epithelial cytosol) is “approximately 10 x”. Further, in data set [4] (stromal cell cytosol), the “specific binding in the stromal preparations” value is recorded as “very low”. Besides, in the data set with adult castrated rats, the “weight / regrowth of seminal vesicles” value is “did not significantly affect regrowth of the seminal vesicles”, the “weight / regrowth of ventral prostate” value is recorded as “prevented the testosterone-mediated regrowth of the prostate” and the weight of epididemis result was “had hardly any effect on the epididemis”. Further, in the data set with aged male rats, the “melatonin binding sites in brain areas” value was “markedly increased melatonin binding sites in the hypothalamus, medulla-pons, thalamus and cortex”; the “serum testosterone levels vs untreated controls” value is on record as “did not significantly differ”; the “suppressive effect of testosterone on melatonin binding sites in hypothalamus and hippocampus” value was “attenuated a suppressive effect of testosterone on melatonin binding sites”. Moreover, the urinary flow entry in data set [5] is recorded as “immediate improvement in urinary flow in some of the patients”. Moreover, the “ventral prostate and seminal vesicle weight” value with pinealectomized rats was “lowered ventral prostate and seminal vesicle weight”. For the same molecule, in [6] (125I-melatonin probe, epithelial cell cytosol, 1 hour at 37° C., read-out: dissociation constant), the Kd is 0.6 nM. In addition, the binding site density in data set [6] (epithelial cell cytosol) amounted to 140 fmol/mg cytosol protein. In the data set with BPH patients [7], the “ultrastructural morphology of prostate specimens (electron microscopy)” value is reported as “evidence for secretion of fresh collagen bundles”. The toxicity result with human subjects (human, in vivo) was “no significant toxicity has been observed”. Moreover, the circulating testosterone levels result in the data set on human subjects (humans) is given as “does not increase circulating testosterone levels”. Also, the “125I-melatonin binding in the various brain areas” value in data set [1] (pinealectomized rats, melatonin via drinking water, any time recorded) is listed as “had no effect on ^125 I-melatonin binding”. Besides, the “125I-melatonin binding in hippocampus and midbrain” value in data set [1] (sham-operated rats, melatonin via drinking water, 13 hours after lights-on) is given as “decrease in ^125 I-melatonin binding”. Also, the 3α reductase activity entry with 3α reductase is recorded as “stimulate 3α reductase activity”. The “urinary flow (subjective)” value in the data set on BPH patients [8] (5 mg sustained release or 50 mg fast release daily in the evening, all patients but one who withdrew) is listed as “subjective improvement of urinary flow”. Besides, in the data set with BPH patients [8] (setting [12]), the “decrease in the PSA level” value was “approximately 10%” and the “enlargement of the prostate gland” value was “no further enlargement of the prostate gland”. Besides, in the data set with 5α reductase, the 5α reductase activity entry was “did not affect 5α reductase activity”. The “weight of testes and ventral prostate gland” value in data set [9] (hypophysectomized animals) was “decreases the weight of both the testes and the ventral prostate gland”. Besides, the “regression of the ventral prostate gland” value in [9] (subcutaneous 750 mcg., castrated rats, in presence of exogenous testosterone) is “enhances regression of the ventral prostate gland”. Further, the “pubertal development, including prostate development in the males” value in the data set with male and female rats is “delayed pubertal development of male and female rats”.
`CCC(=O)O[C@H]1CC[C@H]2[C@@H]3CCC4=CC(=O)CC[C@]4(C)[C@H]3CC[C@]12C` [testosterone, testosterone propionate]: in the data set with adult castrated rats, the “weight / regrowth of seminal vesicles” value was “increased the weight of the seminal vesicles and ventral prostate”; the “weight / regrowth of ventral prostate” value was “increased the weight of the seminal vesicles and ventral prostate”; the weight of epididemis result is on record as “had no effect on the epididemis”.
For the molecule `COc1ccc2[nH]c([125I])c(CCNC(C)=O)c2c1` [^125 I-melatonin], the “Bound in Stromal (specific binding, mean)” value was 0.6 fmol/mg protein in data set [4] (125I-melatonin 0.05 nM); 2.5 fmol/mg protein in [4] (125I-melatonin 0.10 nM); 3.7 fmol/mg protein in [4] (125I-melatonin 0.20 nM); 4.3 fmol/mg protein in data set [4] (125I-melatonin 0.30 nM); 8.8 fmol/mg protein in data set [4] (125I-melatonin 0.50 nM); 16.2 fmol/mg protein in data set [4] (125I-melatonin 1.00 nM). Further, the “Bound in Epithelial (specific binding, mean)” value in data set [6] (125I-melatonin 0.05 nM) was found to be 6.25 fmol/mg protein; in [6] (125I-melatonin 0.10 nM), 12.5 fmol/mg protein; in [6] (125I-melatonin 0.20 nM), 31.3 fmol/mg protein; in data set [6] (125I-melatonin 0.30 nM) it was 45.6 fmol/mg protein; in data set [6] (125I-melatonin 0.50 nM), 66.9 fmol/mg protein; in data set [6] (125I-melatonin 1.00 nM), 93.1 fmol/mg protein.
